This is an account of results in patent US20200031866A1, “PEPTIDE INHIBITORS OF SODIUM CHANNELS” (SPYRYX BIOSCIENCES, INC., priority 2016, published 2020).

Test [1] deals with T1, epithelial sodium channels (Homo sapiens, UniProt P37088+P51168+P51170).
T1 construct: human bronchial epithelial cultures from CF patients; endogenous in cells; host or cells: human bronchial epithelial cultures from CF patients
T1 sequence (P37088 1-669): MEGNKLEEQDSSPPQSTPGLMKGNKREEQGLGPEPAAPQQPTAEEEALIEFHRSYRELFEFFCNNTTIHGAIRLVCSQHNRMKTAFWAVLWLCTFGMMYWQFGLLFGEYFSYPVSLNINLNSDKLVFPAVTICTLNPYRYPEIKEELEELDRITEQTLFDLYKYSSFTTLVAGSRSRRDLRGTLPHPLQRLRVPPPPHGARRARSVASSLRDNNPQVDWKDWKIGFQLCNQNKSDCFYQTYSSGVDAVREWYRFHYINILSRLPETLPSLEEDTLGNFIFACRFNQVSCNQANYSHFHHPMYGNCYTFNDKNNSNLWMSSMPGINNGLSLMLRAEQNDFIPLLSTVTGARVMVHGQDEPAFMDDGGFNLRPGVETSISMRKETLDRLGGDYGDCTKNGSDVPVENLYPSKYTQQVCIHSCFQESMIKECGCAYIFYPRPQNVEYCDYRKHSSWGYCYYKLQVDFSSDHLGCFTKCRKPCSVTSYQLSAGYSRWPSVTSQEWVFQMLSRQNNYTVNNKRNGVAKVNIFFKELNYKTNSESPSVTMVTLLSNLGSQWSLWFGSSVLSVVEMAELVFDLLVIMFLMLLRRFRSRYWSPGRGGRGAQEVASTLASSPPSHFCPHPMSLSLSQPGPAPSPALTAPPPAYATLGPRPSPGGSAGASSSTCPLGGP
T1 sequence (P51168 1-640): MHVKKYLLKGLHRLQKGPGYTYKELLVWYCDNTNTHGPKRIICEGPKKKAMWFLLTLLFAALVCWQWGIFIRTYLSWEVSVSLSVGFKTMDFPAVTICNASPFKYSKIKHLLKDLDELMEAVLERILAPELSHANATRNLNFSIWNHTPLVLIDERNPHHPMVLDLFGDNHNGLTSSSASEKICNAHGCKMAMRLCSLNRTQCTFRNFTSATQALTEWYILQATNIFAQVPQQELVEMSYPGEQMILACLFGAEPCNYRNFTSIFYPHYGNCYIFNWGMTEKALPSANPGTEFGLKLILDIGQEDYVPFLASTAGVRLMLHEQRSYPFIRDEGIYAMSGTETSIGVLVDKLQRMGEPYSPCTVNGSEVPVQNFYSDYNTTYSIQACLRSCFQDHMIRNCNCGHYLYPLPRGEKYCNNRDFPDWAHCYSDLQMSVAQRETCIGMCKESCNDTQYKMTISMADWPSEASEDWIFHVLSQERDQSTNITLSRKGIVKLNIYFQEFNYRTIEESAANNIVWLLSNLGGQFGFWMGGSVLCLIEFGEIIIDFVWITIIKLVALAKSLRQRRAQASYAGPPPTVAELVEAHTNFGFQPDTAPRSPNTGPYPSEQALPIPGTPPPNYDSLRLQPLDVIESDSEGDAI
T1 sequence (P51170 1-649): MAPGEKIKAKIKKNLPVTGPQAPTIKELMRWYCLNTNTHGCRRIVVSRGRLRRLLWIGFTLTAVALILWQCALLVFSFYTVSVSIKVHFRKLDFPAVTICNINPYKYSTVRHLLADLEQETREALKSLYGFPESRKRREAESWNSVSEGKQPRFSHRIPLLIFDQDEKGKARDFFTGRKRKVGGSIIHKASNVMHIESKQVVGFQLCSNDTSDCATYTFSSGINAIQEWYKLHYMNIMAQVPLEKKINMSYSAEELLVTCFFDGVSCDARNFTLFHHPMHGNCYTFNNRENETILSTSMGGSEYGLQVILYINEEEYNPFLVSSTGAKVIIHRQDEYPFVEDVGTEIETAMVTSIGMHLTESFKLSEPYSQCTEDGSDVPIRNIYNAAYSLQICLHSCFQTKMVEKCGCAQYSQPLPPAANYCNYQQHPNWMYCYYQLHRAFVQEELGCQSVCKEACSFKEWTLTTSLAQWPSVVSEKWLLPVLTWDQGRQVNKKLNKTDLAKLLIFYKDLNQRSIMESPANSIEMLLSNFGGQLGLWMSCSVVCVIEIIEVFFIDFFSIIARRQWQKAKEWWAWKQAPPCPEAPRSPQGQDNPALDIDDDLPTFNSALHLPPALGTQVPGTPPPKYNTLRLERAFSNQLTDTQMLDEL
The test is described as follows: Airway surface liquid hyper absorption in human bronchial epithelial cultures from CF patients. Format: cell-based.

The subject of a further test is βENaC-Tg mice. It counts as in vivo. The text has this: Like CF patients, βENaC-Tg mice are disease free at birth, but soon develop obstructive lung disease (Zhou, Z., et al. Am J Respir Crit Care Med 178, 1245-1256 (2008)). C57BL:FVB and C57BL:C3H mixed strains have 90% and 50% mortality, respectively, and the reproducibility of the disease on these backgrounds is sufficiently high that reliable data are produced with n of about 8-10 animals/group. Furthermore, the βENaC-Tg mouse responds to therapeutic interventions in a fashion similar to CF/COPD in humans, and the development of lung disease can be prevented following inhibition of lung disease at birth (Livraghi, A., et al. J Immunol 182, 4357-4367 (2009)). S18-derived peptides or vehicle were dosed one to three times a day by intranasal instillation (1 μl/g body weight) for 14 days in parallel cohorts of mice. Mice were weighed daily and, if a diuretic effect was found, the volume excreted was replaced by sub-cutaneous injections of sterile saline. At the end of the treatment, mice were sacrificed for phenotypic analysis.

In another test the target is T2, alpha-ENaC (Homo sapiens, UniProt P37088+P51168+P51170).
T2 construct: expressed in transfected cells; host or cells: HEK293T
T2 sequence (P37088 1-669): T1 sequence (P37088 1-669)
T2 sequence (P51168 1-640): T1 sequence (P51168 1-640)
T2 sequence (P51170 1-649): T1 sequence (P51170 1-649)
As to the kind of experiment: Internalization of alpha-ENaC in HEK293T cells, GFP-tagged alpha-ENaC co-expressed with beta and gamma ENaC. Format: cell-based. The conditions noted are these: beta-ENaC co-expressed, FIGS. 5A-5U. The source says:
HEK293T cells were transfected with gfp-αENaC where gfp was fused at the N-terminus of ENaC and unlabeled βENaC and γENaC using lipofectamine in 384 well plates as per the manufacturer's instructions and as published previously (see, e.g., Hobbs et al. Am J Physiol Lung Cell Mol Physiol. 2013 December; 305(12):L990-L1001. doi: 10.1152/ajplung.00103.2013. Epub 2013 October; Garland et al. Proc Natl Acad Sci USA. 2013 Oct. 1; 110(40):15973-8. doi: 10.1073/pnas.1311999110. Epub 2013 Sep. 16.; Tan et al. J Physiol. 2014 Dec. 1; 592(Pt 23):5251-68). Twenty-four hours later, peptide or vehicle control were added at t=0 and fluorescence was read using a Tecan M1000 plate reader 3 h later. Fluorescence was read at 488 nm (excitation)/510 nm (emission).

Like-named read-outs stand apart in the source and are kept apart here. Square brackets hold non-standard residues; d marks the D form. Peptide text beside a SMILES is read from it.

For the molecule `CC[C@H](C)[C@H](NC(=O)[C@@H]1CCCN1C(=O)[C@H](CC(C)C)NC(=O)[C@@H](C)NC(=O)[C@@H](C)N)C(=O)N1CCC[C@H]1C(=O)N[C@@H](CC(C)C)C(=O)N[C@@H](CC(=O)O)C(=O)N[C@@H](CCC(N)=O)C(=O)N[C@H](C(=O)N[C@H](C)C(=O)N[C@H](C)C(N)=O)[C@@H](C)O` [SEQ ID NO:128, aaLPIPLDQTaa] (H-[dA][dA]LPIPLDQT[dA][dA]-NH2), the “duration of prevention of airway surface liquid hyper absorption following a single dose” value in test [1] is given as greater than 8 h. In addition, the percent survival result with βENaC-Tg mice (βENaC-Tg C57BL:C3H mice, fourteen-day treatment, FIGS. 7C, 7D, 7F) is on record as “increased percent survival”; with βENaC-Tg mice (βENaC-Tg C57BL:C3H mice, once daily dosing, FIG. 7E left panel) it was “increased percent survival”; in the test on βENaC-Tg mice (βENaC-Tg C57BL:FVB mice, fourteen-day inhaled treatment, FIG. 7B), “more effective than inhaled SEQ ID NO:142 at increasing percent survival”. The “reduction of alpha-ENaC / functional receptor on the cell surface” value at alpha-ENaC was “effective in reducing alpha-ENaC”.
